Measured values from PubChem BioAssay AID2060490 (Molecular Pharmacology Branch, DTP, NCI, 2025).

System: 885512-296-R-J2-PDC complex spheroid viability
Assay: Anticancer human tumor 885512-296-R-J2-PDC patient-derived breast carcinoma cell line growth inhibition [GQUAD]
Settings: for IC50: curve of first compound; for viability, T/C: stronger effect = lower value
Procedure, shortened: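 Multi-cell-type spheroids of tumor cells with HUVEC and mesenchymal stem cells, treated with drug combinations. Concentrations descend in half-log steps from near clinical Cmax, or from 10 microM where Cmax is unknown; viability read-out.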

[1] = second compound 0.0316 µM, first compound 0.0316 µM
[2] = second compound 0.0316 µM, first compound 0.1 µM
[3] = second compound 0.0316 µM, first compound 0.316 µM
[4] = second compound 0.0316 µM, first compound 1 µM
[5] = second compound 0.0316 µM, first compound 3.16 µM
[6] = second compound 0.0316 µM, first compound 10 µM
[7] = second compound 0.1 µM, first compound 0.0316 µM
[8] = second compound 0.1 µM, first compound 0.1 µM
[9] = second compound 0.1 µM, first compound 0.316 µM
[10] = second compound 0.1 µM, first compound 1 µM
[11] = second compound 0.1 µM, first compound 3.16 µM
[12] = second compound 0.1 µM, first compound 10 µM
[13] = second compound 0.316 µM, first compound 0.0316 µM
[14] = second compound 0.316 µM, first compound 0.1 µM
[15] = second compound 0.316 µM, first compound 0.316 µM
[16] = second compound 0.316 µM, first compound 1 µM
[17] = second compound 0.316 µM, first compound 3.16 µM
[18] = second compound 0.316 µM, first compound 10 µM
[19] = second compound 1 µM, first compound 0.0316 µM
[20] = second compound 1 µM, first compound 0.1 µM
[21] = second compound 1 µM, first compound 0.316 µM
[22] = second compound 1 µM, first compound 1 µM
[23] = second compound 1 µM, first compound 3.16 µM
[24] = second compound 1 µM, first compound 10 µM
[25] = second compound 3.16 µM, first compound 0.0316 µM
[26] = second compound 3.16 µM, first compound 0.1 µM
[27] = second compound 3.16 µM, first compound 0.316 µM
[28] = second compound 3.16 µM, first compound 1 µM
[29] = second compound 3.16 µM, first compound 3.16 µM
[30] = second compound 3.16 µM, first compound 10 µM
[31] = second compound 10 µM, first compound 0.0316 µM
[32] = second compound 10 µM, first compound 0.1 µM
[33] = second compound 10 µM, first compound 0.316 µM
[34] = second compound 10 µM, first compound 1 µM
[35] = second compound 10 µM, first compound 3.16 µM
[36] = second compound 10 µM, first compound 10 µM
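Also: spheroids exposed to the compounds for one week.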
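For viability, T/C in this document: percent of tumor spheroid viability relative to DMSO vehicle control wells.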

`COc1cc(C2c3cc4c(cc3C(OC3OC5COC(C)OC5C(O)C3O)C3COC(=O)C23)OCO4)cc(OC)c1O` (stereo unspecified) + CN(C)c1ccc(Nc2c3ccc(NC(=O)CCN4CCCC4)cc3nc3cc(NC(=O)CCN4CCCC4)ccc23)cc1 was tested, and the IC50 (second compound 0.0316 µM) was 590 nM, the IC50 (second compound 0.1 µM) was 641 nM and the IC50 (second compound 0.316 µM) was 584 nM. It also gave an IC50 (second compound 1 µM) of 574 nM, an IC50 (second compound 3.16 µM) of 614 nM and an IC50 (second compound 10 µM) of under 31.6 nM. The viability, T/C [1] was 106%, the viability, T/C [2] was 96.7% and the viability, T/C [3] was 73%. It also gave a viability, T/C [4] of 30.5%, a viability, T/C [5] of 13.4% and a viability, T/C [6] of 8.11%. For the same molecule, the viability, T/C [7] was 106%, the viability, T/C [8] was 94.4% and the viability, T/C [9] was 77.1%. The viability, T/C [10] was 33.1%, the viability, T/C [11] was 13.5% and the viability, T/C [12] was 9.28%. The viability, T/C [13] was 100%, the viability, T/C [14] was 111% and the viability, T/C [15] was 73.3%. For the same molecule, the viability, T/C [16] was 28.8%, the viability, T/C [17] was 13% and the viability, T/C [18] was 7.51%. For the same molecule, the viability, T/C [19] was 88.4%, the viability, T/C [20] was 97.5% and the viability, T/C [21] was 72.5%. The viability, T/C [22] was 28.2%, the viability, T/C [23] was 13.1% and the viability, T/C [24] was 7.5%. The viability, T/C [25] was 88.5%, the viability, T/C [26] was 83.8% and the viability, T/C [27] was 78.8%. The viability, T/C [28] was 28.8%, the viability, T/C [29] was 14.4% and the viability, T/C [30] was 10.3%. For the same molecule, the viability, T/C [31] was 18.7%, the viability, T/C [32] was 24% and the viability, T/C [33] was 22.1%. It also gave a viability, T/C [34] of 11.4%, a viability, T/C [35] of 10.1% and a viability, T/C [36] of 8.35%.

`Cc1cccc(N(C)C(=O)C2C(O)CCN2c2nc(C)cc(C(F)(F)F)c2C#N)c1` (stereo unspecified) + CN(C)c1ccc(Nc2c3ccc(NC(=O)CCN4CCCC4)cc3nc3cc(NC(=O)CCN4CCCC4)ccc23)cc1 gave an IC50 (second compound 0.0316 µM) of over 10000 nM, an IC50 (second compound 0.1 µM) of over 10000 nM and an IC50 (second compound 0.316 µM) of over 10000 nM. It also gave an IC50 (second compound 1 µM) of over 10000 nM, an IC50 (second compound 3.16 µM) of over 10000 nM and an IC50 (second compound 10 µM) of under 31.6 nM. It also gave a viability, T/C [1] of 101%, a viability, T/C [2] of 89.8% and a viability, T/C [3] of 106%. The viability, T/C [4] was 102%, the viability, T/C [5] was 113% and the viability, T/C [6] was 97.7%. The viability, T/C [7] was 110%, the viability, T/C [8] was 106% and the viability, T/C [9] was 102%. It also gave a viability, T/C [10] of 87.3%, a viability, T/C [11] of 104% and a viability, T/C [12] of 91.7%. It also gave a viability, T/C [13] of 111%, a viability, T/C [14] of 99.6% and a viability, T/C [15] of 106%. The viability, T/C [16] was 97.8%, the viability, T/C [17] was 101% and the viability, T/C [18] was 96.8%. For the same molecule, the viability, T/C [19] was 88.5%, the viability, T/C [20] was 105% and the viability, T/C [21] was 95.1%. It also gave a viability, T/C [22] of 93.2%, a viability, T/C [23] of 84.6% and a viability, T/C [24] of 80.8%. It also gave a viability, T/C [25] of 94.8%, a viability, T/C [26] of 96.5% and a viability, T/C [27] of 108%. The viability, T/C [28] was 86.8%, the viability, T/C [29] was 96.2% and the viability, T/C [30] was 62.2%. For the same molecule, the viability, T/C [31] was 23.6%, the viability, T/C [32] was 22.4% and the viability, T/C [33] was 18.6%. For the same molecule, the viability, T/C [34] was 19.3%, the viability, T/C [35] was 15.8% and the viability, T/C [36] was 5.88%.

`O=c1[nH]cc(F)c(=O)[nH]1` + CN(C)c1ccc(Nc2c3ccc(NC(=O)CCN4CCCC4)cc3nc3cc(NC(=O)CCN4CCCC4)ccc23)cc1 gave an IC50 (second compound 0.0316 µM) of over 10000 nM, an IC50 (second compound 0.1 µM) of over 10000 nM and an IC50 (second compound 0.316 µM) of over 10000 nM. For the same molecule, the IC50 (second compound 1 µM) was over 10000 nM, the IC50 (second compound 3.16 µM) was over 10000 nM and the IC50 (second compound 10 µM) was under 31.6 nM. It also gave a viability, T/C [1] of 100%, a viability, T/C [2] of 92.7% and a viability, T/C [3] of 91.6%. It also gave a viability, T/C [4] of 98.8%, a viability, T/C [5] of 58.7% and a viability, T/C [6] of 64.3%. The viability, T/C [7] was 101%, the viability, T/C [8] was 108% and the viability, T/C [9] was 117%. For the same molecule, the viability, T/C [10] was 96.4%, the viability, T/C [11] was 59.5% and the viability, T/C [12] was 60.1%. The viability, T/C [13] was 105%, the viability, T/C [14] was 98.7% and the viability, T/C [15] was 120%. The viability, T/C [16] was 102%, the viability, T/C [17] was 62.3% and the viability, T/C [18] was 60%. For the same molecule, the viability, T/C [19] was 96.4%, the viability, T/C [20] was 102% and the viability, T/C [21] was 97.5%. The viability, T/C [22] was 84%, the viability, T/C [23] was 55.8% and the viability, T/C [24] was 58.4%. For the same molecule, the viability, T/C [25] was 90.9%, the viability, T/C [26] was 96.9% and the viability, T/C [27] was 104%. It also gave a viability, T/C [28] of 77.9%, a viability, T/C [29] of 64.3% and a viability, T/C [30] of 59.1%. It also gave a viability, T/C [31] of 24.8%, a viability, T/C [32] of 20.1% and a viability, T/C [33] of 19.2%. For the same molecule, the viability, T/C [34] was 25.5%, the viability, T/C [35] was 23.2% and the viability, T/C [36] was 18%.
